According to US4208514A, “4(3H)-Oxobenzo-2,1,3-thiadiazine-2,2-dioxides” (The Dow Chemical Company, priority 1976, dated 1980):

Columns and labels:
Type in all cases: in vivo
Velvet Leaf [1] = test: Selective post-emergent greenhouse test, Velvet Leaf; details: for pest or weed control at 358.672 g/ha / pest or weed control at 706.135 g/ha: post-emergence, 336 h, 2 weeks; for pest or weed control at 358.672 g/ha: 0.32 lbs/acre; for pest or weed control at 706.135 g/ha: 0.63 lbs/acre
Description: (§1) So as to illustrate clearly the phytotoxic properties of the various active ingredients of the present invention, a group of controlled greenhouse experiments is described below.
(§2) Various species of plants, both broadleaf weeds and valuable crops, were planted in beds of good agricultural soil in a greenhouse. After the plants had emerged and grown to a height of about 2-6 inches, a portion of the plants were sprayed with an aqueous mixture, made by mixing a selected active ingredient and emulsifier or dispersant with water to provide solution containing 250 or 125 ppm active ingredient, employing sufficient amounts of the treating composition to provide low post emergent application rates of about 0.63 or 0.32 pounds per acre. Other portions of the plants were left untreated to serve as controls. In each test the active ingredient was a 3-methylethyl-1H-2,1,3-benzothiadiazin-4(3H)-one-2,2-dioxide having a substituent in the one position according to the invention.
(§3) After a period of 2 weeks the selective effect of the test ingredient on the plants was evaluated by a comparison with the control group of plants.

Jimson Weed = test: Selective post-emergent greenhouse test, Jimson Weed; details: post-emergence, 336 h, 2 weeks; for pest or weed control at 358.672 g/ha: 0.32 lbs/acre; for pest or weed control at 706.135 g/ha: 0.63 lbs/acre
Description: as §1, §2, §3

Cotton = test: Selective post-emergent greenhouse test, Cotton (crop injury); details: for plant injury at 358.672 g/ha / plant injury at 706.135 g/ha: Gossypium hirsutum, post-emergence, 336 h, 2 weeks, crop, read-out: % Control Cotton; for plant injury at 358.672 g/ha: 0.32 lbs/acre; for plant injury at 706.135 g/ha: 0.63 lbs/acre
Description: as §1, §2, §3

Soybean = test: Selective post-emergent greenhouse test, Soybean (crop injury); details: Glycine max, post-emergence, 336 h, 2 weeks, read-out: % Control Soybean; for plant injury at 358.672 g/ha: 0.32 lbs/acre; for plant injury at 706.135 g/ha: 0.63 lbs/acre
Description: as §1, §2, §3

Nutsedge = test: General post-emergent herbicidal activity at 10 lbs/acre, Nutsedge; details: Cyperus, post-emergence, 336 h
Description: as §2, with “[…], […]” for “emulsifier or dispersant with water to provide solution containing 250 or 125 ppm active ingredient, employing sufficient amounts of the treating composition to provide low post emergent application rates of about 0.63 or 0.32 pounds per acre.”
as §3

Annual Morning Glory = test: General post-emergent herbicidal activity at 10 lbs/acre, Annual Morning Glory; details: Ipomoea, post-emergence, 336 h
Description: as §2, with “[…], […]” for “emulsifier or dispersant with water to provide solution containing 250 or 125 ppm active ingredient, employing sufficient amounts of the treating composition to provide low post emergent application rates of about 0.63 or 0.32 pounds per acre.”
as §3

Velvet Leaf [2] = test: General post-emergent herbicidal activity at 10 lbs/acre, Velvet Leaf; details: post-emergence, 336 h
Description: as §2, with “[…], […]” for “emulsifier or dispersant with water to provide solution containing 250 or 125 ppm active ingredient, employing sufficient amounts of the treating composition to provide low post emergent application rates of about 0.63 or 0.32 pounds per acre.”
as §3

Compound `CCOC(=O)N1c2ccccc2C(=O)N(C(C)C)S1(=O)=O` [CO2 CH2 CH3] has a pest or weed control at 358.672 g/ha (Velvet Leaf [1]) of 70%, a pest or weed control at 706.135 g/ha (Velvet Leaf [1]) of 100% and a pest or weed control at 358.672 g/ha (Jimson Weed) of 100%. For the same compound, the pest or weed control at 706.135 g/ha (Jimson Weed) was 100%, the plant injury at 358.672 g/ha (Cotton; post-emergent) was 10% and the plant injury at 706.135 g/ha (Cotton; post-emergent) was 30%. The plant injury at 358.672 g/ha (Soybean) was 0% and the plant injury at 706.135 g/ha (Soybean) was 0%.

Work on `CCCC(C)C(=O)N1c2ccccc2C(=O)N(C(C)C)S1(=O)=O` (stereo not drawn) [COCH(CH3)CH2 CH2 CH3, 1H-2,1,3-Benzothiadiazin-4(3H)-one: 3-(1-methylethyl)-1-(2-methyl-1-oxopentyl)-; 2,2-dioxide] yielded a pest or weed control at 11208.5 g/ha (Nutsedge) of 95%, a pest or weed control at 11208.5 g/ha (Annual Morning Glory) of 100% and a pest or weed control at 11208.5 g/ha (Velvet Leaf [2]) of 100%.

`CC(C)N1C(=O)c2ccccc2N(C(=O)OCCCl)S1(=O)=O` [CO2 CH2 CH2 Cl] showed a pest or weed control at 358.672 g/ha (Velvet Leaf [1]) of 95%, a pest or weed control at 706.135 g/ha (Velvet Leaf [1]) of 100% and a pest or weed control at 358.672 g/ha (Jimson Weed) of 80%. For the same compound, the pest or weed control at 706.135 g/ha (Jimson Weed) was 100%, the plant injury at 358.672 g/ha (Cotton; post-emergent) was 10% and the plant injury at 706.135 g/ha (Cotton; post-emergent) was 10%. For the same compound, the plant injury at 358.672 g/ha (Soybean) was 0% and the plant injury at 706.135 g/ha (Soybean) was 0%.

For `CC(Br)C(=O)N1c2ccccc2C(=O)N(C(C)C)S1(=O)=O` (stereo not drawn) [COCHBrCH3, 1H-2,1,3-Benzothiadiazin-4(3H)-one: 1-(2-Bromo-1-oxopropyl)-3-(1-methylethyl)-; 2,2-dioxide], the pest or weed control at 358.672 g/ha (Velvet Leaf [1]) was 100%, the pest or weed control at 706.135 g/ha (Velvet Leaf [1]) was 100% and the pest or weed control at 358.672 g/ha (Jimson Weed) was 100%. The pest or weed control at 706.135 g/ha (Jimson Weed) was 100%, the plant injury at 358.672 g/ha (Cotton; post-emergent) was 0% and the plant injury at 706.135 g/ha (Cotton; post-emergent) was 4%. For the same compound, the plant injury at 358.672 g/ha (Soybean) was 0% and the plant injury at 706.135 g/ha (Soybean) was 0%.

Work on `CC(C)N1C(=O)c2ccccc2N(S(=O)(=O)N(C)C)S1(=O)=O` [SO2 N(CH3)2, 1H-2,1,3-Benzothiadiazin-4-(3H)-one; 1-Dimethylsulfamoyl-3-(1-methylethyl)-2,2-dioxide] yielded a pest or weed control at 358.672 g/ha (Velvet Leaf [1]) of 70%, a pest or weed control at 706.135 g/ha (Velvet Leaf [1]) of 50% and a pest or weed control at 706.135 g/ha (Jimson Weed) of 100%. It also gave a plant injury at 358.672 g/ha (Cotton; post-emergent) of 5%, a plant injury at 706.135 g/ha (Cotton; post-emergent) of 70% and a plant injury at 358.672 g/ha (Soybean) of 0%. It also gave a plant injury at 706.135 g/ha (Soybean) of 0%.

In the case of `CCC(C)OC(=O)N1c2ccccc2C(=O)N(C(C)C)S1(=O)=O` (stereo not drawn), the pest or weed control at 358.672 g/ha (Velvet Leaf [1]) is reported as 100%, the pest or weed control at 706.135 g/ha (Velvet Leaf [1]) is reported as 100% and the pest or weed control at 358.672 g/ha (Jimson Weed) is reported as 100%. For the same compound, the pest or weed control at 706.135 g/ha (Jimson Weed) was 100%, the plant injury at 358.672 g/ha (Cotton; post-emergent) was 30% and the plant injury at 706.135 g/ha (Cotton; post-emergent) was 30%. The plant injury at 358.672 g/ha (Soybean) was 0% and the plant injury at 706.135 g/ha (Soybean) was 0%.

Work on `CC(C)COC(=O)N1c2ccccc2C(=O)N(C(C)C)S1(=O)=O` [CO2 CH2 CH(CH3)2, 1H-2,1,3-Benzothiadiazine-1-carboxylic Acid: 3,4-Dihydro-3-(1-methylethyl)-4-oxo-, 2-Methylpropyl Ester, 2,2-Dioxide] yielded a pest or weed control at 358.672 g/ha (Velvet Leaf [1]) of 100%, a pest or weed control at 706.135 g/ha (Velvet Leaf [1]) of 100% and a pest or weed control at 358.672 g/ha (Jimson Weed) of 100%. The pest or weed control at 706.135 g/ha (Jimson Weed) was 100%, the plant injury at 358.672 g/ha (Cotton; post-emergent) was 0% and the plant injury at 706.135 g/ha (Cotton; post-emergent) was 0%. The plant injury at 358.672 g/ha (Soybean) was 10% and the plant injury at 706.135 g/ha (Soybean) was 10%.

In the case of `CC(C)N1C(=O)c2ccccc2NS1(=O)=O` [3-methylethyl-1H-2,1,3-benzothiadiazin-4(3H)-one-2,2-dioixde, reference compound], the “control of velvet leaf” value (Velvet Leaf [1]; comparison test, about 0.32 pounds per acre) is reported as “control of velvet leaf was obtained”, the “damage to cotton at dosage rates at which velvet leaf is controlled” value (Cotton; comparison compound, in general) is reported as “cotton suffers substantial damage” and the control of cotton (Cotton; comparison test, about 0.32 pounds per acre, post-emergent) is reported as 90%.

With `CC(C)N1C(=O)c2ccccc2N(C(=O)c2ccccc2)S1(=O)=O` the pest or weed control at 358.672 g/ha (Velvet Leaf [1]) was 0%, the pest or weed control at 706.135 g/ha (Velvet Leaf [1]) was 0% and the pest or weed control at 358.672 g/ha (Jimson Weed) was 80%. For the same compound, the pest or weed control at 706.135 g/ha (Jimson Weed) was 80%, the plant injury at 358.672 g/ha (Cotton; post-emergent) was 0% and the plant injury at 706.135 g/ha (Cotton; post-emergent) was 0%. For the same compound, the plant injury at 358.672 g/ha (Soybean) was 0% and the plant injury at 706.135 g/ha (Soybean) was 0%.

`CCN(CC)C(=O)N1c2ccccc2C(=O)N(C(C)C)S1(=O)=O` [CON(C2 H5)2] gave a pest or weed control at 358.672 g/ha (Velvet Leaf [1]) of 0%, a pest or weed control at 706.135 g/ha (Velvet Leaf [1]) of 20% and a pest or weed control at 358.672 g/ha (Jimson Weed) of 100%. For the same compound, the pest or weed control at 706.135 g/ha (Jimson Weed) was 100%, the plant injury at 358.672 g/ha (Cotton; post-emergent) was 10% and the plant injury at 706.135 g/ha (Cotton; post-emergent) was 90%. For the same compound, the plant injury at 358.672 g/ha (Soybean) was 0% and the plant injury at 706.135 g/ha (Soybean) was 0%.
